Test results as given in ChEMBL document CHEMBL6074685, “Design, synthesis and biological evaluation of novel diaryl-substituted fused nitrogen heterocycles as tubulin polymerization inhibitors to overcome multidrug resistance in vitro and in vivo” (Eur J Med Chem, 2025).
The source made the active and inactive calls. The rule behind the calls is not given here.

Tests used:
[1] = Toxicity in BALB/c mouse implanted with human A549/T cell assessed as lymphocyte count at 15 mg/kg, ip administered every 2 days and measured after 2 weeks (reference value: […]); type: organism-based; conditions: in vivo, 336 h
[2] = Metabolic stability in mouse liver microsome assessed as half life measured upto 50 mins by LC-MS/MS analysis; type: ADME; conditions: liver microsomes
[3] = Toxicity in BALB/c mouse implanted with human A549/T cell assessed as MCHC level at 30 mg/kg, ip administered every 2 days and measured after 2 weeks (reference value: 570 g/L); type: organism-based; conditions: in vivo, 336 h
A549 [4] = assay: Induction of apoptosis in human A549 cells at 100 nM incubated for 48 hrs by V-FITC/PI staining based flow cytometry analysis relative to control; type: functional
[5] = Toxicity in BALB/c mouse implanted with human A549/T cell assessed as liver damage at 15 to 30 mg/kg, ip administered every 2 days by H and E staining based analysis; type: organism-based; conditions: in vivo, 48 h, dose 15-30 mg/kg, time 2 day
Tubulin (Homo sapiens) = Tubulin (Homo sapiens) (UniProt P68371+Q9H4B7+P0DPH7+P68366+Q13509+Q71U36+P04350+Q3ZCM7+P07437+P68363+Q9BQE3+Q6PEY2+Q13885+Q9BVA1+Q9BUF5); assay: Disruption of microtubule network in human A549 cells at 50 to 100 nM incubated for 24 hrs by immunofluorescence staining based confocal microscopy analysis; type: cell-based; conditions: dose 50-100 nM
[6] = Toxicity in BALB/c mouse implanted with human A549/T cell assessed as lymphocyte count at 15 mg/kg, ip administered every 2 days and measured after 2 weeks (reference value: 56%); type: organism-based; conditions: in vivo, 336 h
[7] = Cytotoxicity against human MCF-10A cells assessed as inhibition of cell growth at 100 nM incubated for 48 hrs by MTT assay relative to control; type: toxicity, cell-based
A549 [8] = assay: Inhibition of colony formation in human A549 cells incubated for 48 hrs by crystal violet staining based analysis; type: functional, cell-based; conditions: dose 0.1-0.5 µM
[9] = Toxicity in BALB/c mouse implanted with human A549/T cell assessed as spleen damage at 15 to 30 mg/kg, ip administered every 2 days by H and E staining based analysis; type: organism-based; conditions: in vivo, 48 h, dose 15-30 mg/kg, time 2 day
[10] = Toxicity in BALB/c mouse implanted with human A549/T cell assessed as kidney damage at 15 to 30 mg/kg, ip administered every 2 days by H and E staining based analysis; type: organism-based; conditions: in vivo, 48 h, dose 15-30 mg/kg, time 2 day
A549/TR [11] = assay: Effect on p-gp expression in human A549/T cell by immunoblotting analysis; type: functional, cell-based
[12] = Toxicity in BALB/c mouse implanted with human A549/T cell assessed as RBC count at 15 mg/kg, ip administered every 2 days and measured after 2 weeks (reference value: 7.92 10^12/L); type: organism-based; conditions: in vivo, 336 h
[13] = Metabolic stability in human liver microsome assessed as intrinsic clearance measured upto 50 mins by LC-MS/MS analysis; type: ADME; conditions: liver microsomes, read-out: CLH
[14] = Toxicity in BALB/c mouse implanted with human A549/T cell assessed as red blood cell distribution width-cell size at 15 mg/kg, ip administered every 2 days and measured after 2 weeks (reference value: 12.1 fL); type: organism-based; conditions: in vivo, 336 h
A549/TR [15] = assay: Antiproliferative activity against human A549/T cell assessed as cell growth inhibition incubated for 48 hrs by MTT assay; type: functional, cell-based
A549/TR [16] = assay: Antitumor activity against human A549/T cell xenografted in BALB/c mouse assessed as reduction in tumor growth at 15 mg/kg, ip administered every 2 days; type: functional, organism-based; conditions: time 2.0 day
[17] = Toxicity in BALB/c mouse implanted with human A549/T cell assessed as monocyte count at 30 mg/kg, ip administered every 2 days and measured after 2 weeks (reference value: 30.6 %); type: organism-based; conditions: in vivo, 336 h
[18] = Toxicity in BALB/c mouse implanted with human A549/T cell assessed as platelet distribution width at 15 mg/kg, ip administered every 2 days and measured after 2 weeks (reference value: 15.3 fL); type: organism-based; conditions: in vivo, 336 h
[19] = Toxicity in BALB/c mouse implanted with human A549/T cell assessed as platelet count at 15 mg/kg, ip administered every 2 days and measured after 2 weeks (reference value: 539 […]); type: organism-based; conditions: in vivo, 336 h
A549 [20] = assay: Induction of apoptosis in human A549 cells at 50 nM incubated for 48 hrs by V-FITC/PI staining based flow cytometry analysis relative to control; type: functional
[21] = (§1) Inhibition of pig brain tubulin polymerization measured upto 20 mins by absorbance based assay; parameters: species or system Sus scrofa
Sus scrofa = species: Sus scrofa; assay: as §1; conditions: dose 0.4-12 µM
A549 [22] = assay: Effect on p-gp expression in human A549 cells by immunoblotting analysis; type: functional, cell-based
[23] = Cytotoxicity against human MCF-10A cells assessed as inhibition of cell growth at 2 nM incubated for 48 hrs by MTT assay relative to control; type: toxicity, cell-based
[24] = Toxicity in BALB/c mouse implanted with human A549/T cell assessed as platelet distribution width at 30 mg/kg, ip administered every 2 days and measured after 2 weeks (reference value: 15.3 fL); type: organism-based; conditions: in vivo, 336 h
[25] = Toxicity in BALB/c mouse implanted with human A549/T cell assessed as Plate-letocrit at 30 mg/kg, ip administered every 2 days and measured after 2 weeks (reference value: 0.549%); type: organism-based; conditions: in vivo, 336 h
[26] = Toxicity in BALB/c mouse implanted with human A549/T cell assessed as red blood cell distribution width-cell volume at 15 mg/kg, ip administered every 2 days and measured after 2 weeks (reference value: 25fL); type: organism-based; conditions: in vivo, 336 h
A549/TR [27] = assay: Induction of cell cycle arrest in human A549/T cell assessed as accumulation of cells at G2/M phase by RNAse A/PI-staining based flow cytometric analysis; type: functional; conditions: dose 25-100 nM
[28] = Cytotoxicity against human MCF-10A cells assessed as inhibition of cell growth at 10 nM incubated for 48 hrs by MTT assay relative to control; type: toxicity, cell-based
[29] = Toxicity in BALB/c mouse implanted with human A549/T cell assessed as change in body weight at 30 mg/kg, ip administered every 2 days; type: organism-based; conditions: in vivo, 48 h, time 2 day
A549/TR [30] = assay: Downregulation of P-gp level in human A549/T cell measured after 48 hrs by immunoblotting analysis; type: functional, cell-based; conditions: dose 62.5-500 nM

Which results are given for `COc1ccc(-c2cc(-c3ccc(OC)c(OC)c3OC)c3nc[nH]c3c2)cc1N`?
Activity [1]: 1.42 10^9/L; half-life [2]: 1.05 h; Activity [3]: 624 g/L; Activity (A549 [4]): 44.42%; Activity [5]: Non-toxic; Activity (Tubulin (Homo sapiens)): Active; Activity [6]: 50.7%; inhibition at 48 h, 0.1 µM [7]: 47%; inhibition (A549 [8]): Dose-dependent-effect; Activity [9]: Non-toxic; Activity [10]: Non-toxic; Activity (A549/TR [11]): Active; Activity [12]: 7.43 10^12/L; CLint scaled [13]: 23 mL/min/kg; Activity [14]: 12.1 fL; IC50 (A549/TR [15]): 57 nM; Activity (A549/TR [16]): Active; Activity [17]: 23.4%; Activity [18]: 17.9 fL; Activity [19]: 505 10^9/L; Activity (A549 [20]): 34.2%; IC50 [21]: 1800 nM; inhibition (Sus scrofa): Dose-dependent-effect; Activity (A549 [22]): inactive; inhibition at 48 h, 0.002 µM [23]: 1%; Activity [24]: 16.9 fL; Activity [25]: 0.425%; Activity [26]: 24 fL; Activity (A549/TR [27]): Dose-dependent-effect; inhibition at 48 h, 0.01 µM [28]: 20%; Activity [29]: Non-toxic; Activity (A549/TR [30]): Dose-dependent-effect
